A word on the IC50: it is the midpoint of a concentration-inhibition curve.

Counter-ions that a name gives are not always drawn.

The target in the first assay is T1, recombinant human MCHR1-receptors (Homo sapiens, UniProt Q99705).
T1 construct: expressed in transfected cells
T1 sequence (Q99705 whole entry): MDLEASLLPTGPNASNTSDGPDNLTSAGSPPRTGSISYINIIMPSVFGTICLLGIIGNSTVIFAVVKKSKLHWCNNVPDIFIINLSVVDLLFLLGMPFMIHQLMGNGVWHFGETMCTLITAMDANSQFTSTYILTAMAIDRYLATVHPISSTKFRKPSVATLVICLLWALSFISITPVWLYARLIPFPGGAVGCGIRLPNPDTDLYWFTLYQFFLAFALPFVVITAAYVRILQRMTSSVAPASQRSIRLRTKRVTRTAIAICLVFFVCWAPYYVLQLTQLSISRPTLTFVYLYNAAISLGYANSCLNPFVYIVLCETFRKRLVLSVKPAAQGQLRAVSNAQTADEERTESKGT
Nature of the assay: MCHR filter binding assay (competition binding). The conditions noted are these: membranes from CHO-K1 cells expressing human MCHR1; 0.2 nM [Phe13,[125I]Tyr19]-MCH; read-out: IC50 (nM), in vitro activity (binding assay). In a few lines: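 Membranes from CHO-K1 cells stably expressing human MCHR1 (2.8 μg) preincubated 15 min with competitor, then 1 h at rt with 0.2 nM [Phe13,[125I]Tyr19]-MCH in HEPES/CaCl2/BSA/phenanthroline/Triton buffer. Bound radioactivity counted after rapid filtration over PVP/BSA-treated GF/B filters.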
As for `Cc1ccc2c(c1)CC(CN1CCC(n3c(C(C)(C)F)nc4cc(C)ccc43)CC1)C2` (stereo not shown) [Example 105, 2-(1-Fluoro-1-methyl-ethyl)-5-methyl-1-[1-(5-methyl-indan-2-ylmethyl)-piperidin-4-yl]-1H-benzoimidazole], the IC50 was 200 to 5000 nM.

`CO[C@@H]1CN(C[C@@H]2Cc3ccc(F)cc3C2)CC[C@H]1n1c(C(C)(C)O)nc2cc(C)ccc21` [Example 109, 2-{1-[(3R,4R)-1-((R)-5-Fluoro-indan-2-ylmethyl)-3-methoxy-piperidin-4-yl]-5-methyl-1H-benzoimidazol-2-yl}-propan-2-ol]: the IC50 lay within 20 to 200 nM.

As to `CCOc1nc2cc(C)ccc2n1C1CCN(CC2Cc3ccc(NC(=O)C(C)C)cc3C2)CC1` (stereo in doubt) [Example 4, N-{(S)-2-[4-(2-Ethoxy-5-methyl-benzoimidazol-1-yl)-piperidin-1-ylmethyl]-indan-5-yl}-isobutyramide], the IC50 lay within 20 to 200 nM.

In the case of `CO[C@@H]1CN(C[C@H]2Cc3ccc(Br)cc3C2)CC[C@H]1n1c(C)nc2cc(C)ccc21` [Example 1, 1-[(3R,4R)-1-((S)-5-Bromo-indan-2-ylmethyl)-3-methoxy-piperidin-4-yl]-2,5-dimethyl-1H-benzoimidazole], the IC50 is less than 20 nM.

Regarding `CO[C@@H]1CN(C[C@H]2Cc3ccc(Br)cc3C2)CC[C@H]1n1c(C(C)(C)O)nc2cc(F)ccc21` [Example 111, 2-{1-[(3R,4R)-1-((S)-5-Bromo-indan-2-ylmethyl)-3-methoxy-piperidin-4-yl]-5-fluoro-1H-benzoimidazol-2-yl}-propan-2-ol], the IC50 is 20 to 200 nM.

As for `CO[C@@H]1CN(CC2Cc3ccccc3C2)CC[C@H]1n1c(C(C)(C)O)nc2cc(C)ccc21` [Example 107, 2-[1-((3R,4R)-1-Indan-2-ylmethyl-3-methoxy-piperidin-4-yl)-5-methyl-1H-benzoimidazol-2-yl]-propan-2-ol], the IC50 fell in the range of 20 to 200 nM.

Turning to `CO[C@@H]1CN(CC2Cc3ccc(Br)cc3C2)CC[C@H]1n1c(C(C)(C)O)nc2cc(C)ccc21` (stereo in doubt) [Example 11, 2-{1-[(3R,4R)-1-((S)-5-Bromo-indan-2-ylmethyl)-3-methoxy-piperidin-4-yl]-5-methyl-1H-benzoimidazol-2-yl}-propan-2-ol], the IC50 was less than 20 nM.

On to `CO[C@H]1CN(C[C@@H]2Cc3ccc(NC(=O)C(F)F)cc3C2)CC[C@@H]1n1c(C2CC2)nc2cc(C)ccc21` [Example 63, N-{(R)-2-[(3S,4S)-4-(2-Cyclopropyl-5-methyl-benzoimidazol-1-yl)-3-methoxy-piperidin-1-ylmethyl]-indan-5-yl}-2,2-difluoro-acetamide], for which the IC50 was less than 20 nM.

With `CO[C@@H]1CN(C[C@H]2Cc3ccc(NC(=O)C(C)C)cc3C2)CC[C@H]1n1c(C)nc2cc(C)ccc21` [Example 39, N-{(S)-2-[(3R,4R)-4-(2,5-Dimethyl-benzoimidazol-1-yl)-3-methoxy-piperidin-1-ylmethyl]-indan-5-yl}-isobutyramide; dihydrochloride], the IC50 was less than 20 nM.

On to `COc1ccc2c(c1)CC(CN1CC[C@H](n3c(C)nc4cc(C)ccc43)[C@@H](OC)C1)C2` (stereo partly drawn) [Example 92, 1-[(3S,4S)-3-Methoxy-1-(5-methoxy-indan-2-ylmethyl)-piperidin-4-yl]-2,5-dimethyl-1H-benzoimidazole; dihydrochloride], for which the IC50 was 20 to 200 nM.

In the case of `Cc1ccc2c(c1)nc(C(C)(C)O)n2C1CCN(CC2Cc3ccc(Cl)cc3C2)CC1` (stereo not shown) [Example 14, 2-{1-[1-(5-Chloro-indan-2-ylmethyl)-piperidin-4-yl]-5-methyl-1H-benzoimidazol-2-yl}-propan-2-ol], the IC50 is less than 20 nM.

Take “N-{(R)-2-[(3R,4R)-4-(2,5-Dimethyl-benzoimidazol-1-yl)-3-methoxy-piperidine-1-carbonyl]-indan-5-yl}-isobutyramide [Example 57]”: the half-maximal inhibitory concentration (IC50) lay in the range of 200 to 5000 nM.

For `COC(=O)Nc1ccc2c(c1)C[C@H](CN1CCC(n3c(C(C)(C)O)nc4cc(C)ccc43)CC1)C2` [Example 6, ((R)-2-{4-[2-(1-Hydroxy-1-methyl-ethyl)-5-methyl-benzoimidazol-1-yl]-piperidin-1-ylmethyl}-indan-5-yl)-carbamic acid methyl ester], the IC50 was in the range of 20 to 200 nM.

Take `CO[C@@H]1CN(C[C@H]2Cc3ccc(Cl)cc3C2)CC[C@H]1n1c(C(C)(C)O)nc2cc(C)ccc21` [Example 112, 2-{1-[(3R,4R)-1-((S)-5-Chloro-indan-2-ylmethyl)-3-methoxy-piperidin-4-yl]-5-methyl-1H-benzoimidazol-2-yl}-propan-2-ol]: the IC50 is 20 to 200 nM.

As for `Cc1ccc2c(c1)nc(C(C)(C)O)n2C1CCN(CC2Cc3cccc(Cl)c3C2)CC1` (stereo not shown) [Example 103, 2-{1-[1-(4-Chloro-indan-2-ylmethyl)-piperidin-4-yl]-5-methyl-1H-benzoimidazol-2-yl}-propan-2-ol; compound with trifluoroacetic acid], the IC50 lay within 20 to 200 nM.

In the case of `CCC(=O)Nc1ccc2c(c1)C[C@H](CN1CCC(n3c(C(C)(C)O)nc4cc(C)ccc43)CC1)C2` [Example 8, N-((R)-2-{4-[2-(1-Hydroxy-1-methyl-ethyl)-5-methyl-benzoimidazol-1-yl]-piperidin-1-ylmethyl}-indan-5-yl)-propionamide], the IC50 was 20 to 200 nM.

In the case of `Cc1ccc2c(c1)nc(C(C)C)n2[C@@H]1CCN(C[C@@H]2Cc3ccc(NC(=O)C(C)C)cc3C2)C[C@H]1O` [Example 86, N-{(R)-2-[(3R,4R)-3-Hydroxy-4-(2-isopropyl-5-methyl-benzoimidazol-1-yl)-piperidin-1-ylmethyl]-indan-5-yl}-isobutyramide], the IC50 was 20 to 200 nM.

With `CCC(=O)Nc1ccc2c(c1)CC(CN1CC[C@@H](n3c(C)nc4cc(C)ccc43)[C@H](O)C1)C2` (stereo in doubt) [Example 5, N-{(S)-2-[(3R,4R)-4-(2,5-Dimethyl-benzoimidazol-1-yl)-3-hydroxy-piperidin-1-ylmethyl]-indan-5-yl}-propionamide], the IC50 is 20 to 200 nM.

Consider `Cc1cc2nc(C(C)(C)O)n(C3CCN(CC4Cc5ccc(F)cc5C4)CC3)c2cc1F` (stereo not shown) [Example 13, 2-{6-Fluoro-1-[1-(5-fluoro-indan-2-ylmethyl)-piperidin-4-yl]-5-methyl-1H-benzoimidazol-2-yl}-propan-2-ol], for which the IC50 is less than 20 nM.

As for `CCCC(=O)Nc1ccc2c(c1)C[C@H](CN1CC[C@H](n3c(C4CC4)nc4cc(C)ccc43)[C@@H](OC)C1)C2` [Example 62, N-{(R)-2-[(3S,4S)-4-(2-Cyclopropyl-5-methyl-benzoimidazol-1-yl)-3-methoxy-piperidin-1-ylmethyl]-indan-5-yl}-butyramide], the IC50 was less than 20 nM.

With `CCC(C)C(=O)Nc1ccc2c(c1)CC(CN1CCC(n3c(C)nc4cc(C)ccc43)CC1)C2` (stereo not shown) [Example 51, N-{2-[4-(2,5-Dimethyl-benzoimidazol-1-yl)-piperidin-1-ylmethyl]-indan-5-yl}-2-methyl-butyramide], the IC50 lay in the range of 20 to 200 nM.

For `Cc1ccc2c(c1)nc(C)n2C1CCN(C[C@H]2Cc3ccc(NC(=O)Cc4cccs4)cc3C2)CC1` [Example 38, N-{(S)-2-[4-(2,5-Dimethyl-benzoimidazol-1-yl)-piperidin-1-ylmethyl]-indan-5-yl}-2-thiophen-2-yl-acetamide], the IC50 is less than 20 nM.

For `CO[C@@H]1CN(CC2Cc3ccccc3C2)CC[C@H]1n1c(C(C)C)nc2cc(C)ccc21` [Example 24, 1-((3R,4R)-1-Indan-2-ylmethyl-3-methoxy-piperidin-4-yl)-2-isopropyl-5-methyl-1H-benzoimidazole], the IC50 was 20 to 200 nM.

`CCc1nc2cc(C)ccc2n1C1CCN(CC2Cc3ccc(NC(=O)C4CC4)cc3C2)CC1` (stereo not shown) [Example 74, Cyclopropanecarboxylic acid {2-[4-(2-ethyl-5-methyl-benzoimidazol-1-yl)-piperidin-1-ylmethyl]-indan-5-yl}-amide]: the IC50 is 20 to 200 nM.

With `CO[C@@H]1CN(CC2Cc3cccc(Cl)c3C2)CC[C@H]1n1c(C)nc2cc(C)ccc21` (stereo partly drawn) [Example 97, 1-[(3R,4R)-1-(4-Chloro-indan-2-ylmethyl)-3-methoxy-piperidin-4-yl]-2,5-dimethyl-1H-benzoimidazole], the IC50 was 20 to 200 nM.

For `Cc1ccc2c(c1)nc(CC(C)(C)O)n2C1CCN(CC2Cc3ccc(F)cc3C2)CC1` (stereo not shown) [Example 23, 1-{1-[1-(5-Fluoro-indan-2-ylmethyl)-piperidin-4-yl]-5-methyl-1H-benzoimidazol-2-yl}-2-methyl-propan-2-ol; dihydrochloride], the IC50 is 20 to 200 nM.

Regarding `CS(=O)(=O)c1ccc2c(c1)nc(C(F)(F)F)n2C1CCN(C[C@H]2Cc3ccc(Br)cc3C2)CC1` [Example 121, 1-[1-((S)-5-Bromo-indan-2-ylmethyl)-piperidin-4-yl]-5-methanesulfonyl-2-trifluoromethyl-1H-benzoimidazole], the IC50 fell in the range of 20 to 200 nM.

Consider `CO[C@H]1CN(CC2Cc3cc(Cl)c(Cl)cc3C2)CC[C@@H]1n1c(C(C)C)nc2cc(C)ccc21` [Example 95, 1-[(3S,4S)-1-(5,6-Dichloro-indan-2-ylmethyl)-3-methoxy-piperidin-4-yl]-2-isopropyl-5-methyl-1H-benzoimidazole; dihydrochloride], for which the IC50 is 200 to 5000 nM.

For `CO[C@@H]1CN(CC2Cc3ccncc3C2)CC[C@H]1n1c(C)nc2cc(C)ccc21` (stereo partly drawn) [Example 119, 1-[(3R,4R)-1-(6,7-Dihydro-5H-[2]pyrindin-6-ylmethyl)-3-methoxy-piperidin-4-yl]-2,5-dimethyl-1H-benzoimidazole], the IC50 was 20 to 200 nM.

Regarding `CO[C@H]1CN(CC2Cc3cc(F)c(F)cc3C2)CC[C@@H]1n1c(C)nc2cc(C)ccc21` [Example 101, 1-[(3S,4S)-1-(5,6-Difluoro-indan-2-ylmethyl)-3-methoxy-piperidin-4-yl]-2,5-dimethyl-1H-benzoimidazole], the IC50 lay within 20 to 200 nM.

The assay is the same for the next values; noted with them: membranes from CHO-K1 cells expressing human MCHR1; 0.2 nM [Phe13,[125I]Tyr19]-MCH; read-out: IC50 (nM), selected in vitro MCH-R binding data.
Take `CO[C@@H]1CN(C[C@H]2Cc3ccc(Br)cc3C2)CC[C@H]1n1c(C)nc2cc(C)ccc21` [Example 1, 1-[(3R,4R)-1-((S)-5-Bromo-indan-2-ylmethyl)-3-methoxy-piperidin-4-yl]-2,5-dimethyl-1H-benzoimidazole]: the IC50 amounted to 20 nM.

These data come from patent US7803816B2, “MCH receptor antagonists” (Hoffmann-La Roche Inc., priority 2005, dated 2010).
